According to patent US8236818B2, “Substituted imidazopyridine derivatives as melanocortin-4 receptor antagonists” (Santhera Pharmaceuticals (Schweiz) AG, priority 2007, dated 2012):

Assays:
[1] = target: T1, melanocortin-4 receptor (Homo sapiens, UniProt P32245); assay: Functional assay (cAMP fluorescence polarization, membrane based, agonistic activity); type: biochemical; conditions: 2 h; read-out: % activation functional assay
T1 construct: expressed in transfected cells; host or cells: HEK293 cells (membrane preparations)

[2] = target: T1, melanocortin-4 receptor; assay: Membrane binding assay (fluorescence polarization, competition with fluorescence labeled NDP-alpha-MSH); conditions: read-out: hMC-4R binding assay IC50/μM

T1 sequence (P32245 whole entry): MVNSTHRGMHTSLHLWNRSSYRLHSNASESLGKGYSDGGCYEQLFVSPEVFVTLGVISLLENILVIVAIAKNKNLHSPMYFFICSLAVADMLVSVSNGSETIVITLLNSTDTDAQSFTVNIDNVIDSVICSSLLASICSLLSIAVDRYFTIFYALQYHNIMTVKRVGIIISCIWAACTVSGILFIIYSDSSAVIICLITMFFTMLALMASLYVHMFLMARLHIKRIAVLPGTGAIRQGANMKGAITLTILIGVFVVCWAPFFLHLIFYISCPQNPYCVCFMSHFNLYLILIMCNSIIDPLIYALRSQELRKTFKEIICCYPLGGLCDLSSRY

SMILES | Emax [1] [%] | IC50 [2] [µM]
CC(C)CCN(CCC(C)C)C(=O)c1ccc2nc(-c3cc(O)ccn3)c(CCCN(C)C)n2c1 [Example 46] | 0 | 0.1 to 1
CC(C)CCN(CCC(C)C)C(=O)c1ccc2nc(-c3ncco3)c(CCCN3CCCC3)n2c1 [Example 47] | 0 | < 0.1
Cc1nc(C)c(-c2nc3ccc(C(=O)N(CCC(C)C)CCC(C)C)cn3c2CCCN2CCCC2)o1 [Example 48] | 0 | < 0.1
CC(C)CCN(CCC(C)C)C(=O)c1ccc2nc(-c3nccs3)c(CCCN3CCCC3)n2c1 [Example 49] | 0 | < 0.1
CC(C)CCN(CCC(C)C)C(=O)c1ccc2nc(-c3ccc(C(=O)O)cc3)c(CCCN3CCCC3)n2c1 [Example 50] | -1 | 0.1 to 1
CC(C)CCN(CCC(C)C)C(=O)c1ccc2nc(-c3ccc(N(C)C)nc3)c(CCCN(C)C)n2c1 [Example 51] | 0 | < 0.1
CC(C)CCN(CCC(C)C)C(=O)c1ccc2nc(-c3ncco3)c(CCCN(C)C)n2c1 [Example 52] | 0 | 0.1 to 1
COc1cccc(-c2nc3ccc(C(=O)N(CCC(C)C)CCC(C)C)cn3c2CC(C)CN2CCCC2)c1 (centres unmarked) [Example 54] | 0 | 0.1 to 1
CC(C)CCN(CCC(C)C)C(=O)c1ccc2nc(-c3ccccn3)c(CCCN3CCCC3)n2c1 [Example 55] | 0 | 0.1 to 1
CC(C)CCN(CCC(C)C)C(=O)c1ccc2nc(-c3ccncc3)c(CCCN3CCCC3)n2c1 [Example 56] | 0 | < 0.1
Cc1ccc(-c2nc3ccc(C(=O)N(CCC(C)C)CCC(C)C)cn3c2CCCN2CCCC2)nc1 [Example 57] | 0 | < 0.1
Cc1ccc(-c2nc3ccc(C(=O)N(CCC(C)C)CCC(C)C)cn3c2CCCN(C)C)nc1 [Example 58] | 0 | > 1
CC(C)CCN(CCC(C)C)C(=O)c1ccc2nc(-c3ccc(=O)[nH]c3)c(CCCN3CCCC3)n2c1 [Example 59] | 0 | < 0.1
COc1cccc(-c2nc3ccc(C(=O)N(CCC(C)C)CCC(C)C)cn3c2CCCN(C(C)C)C(C)C)c1 [Example 60] | 0 | 0.1 to 1
CC(C)CCN(CCC(C)C)C(=O)c1ccc2nc(-c3nccs3)c(CCCN(C)C)n2c1 [Example 61] | 0 | 0.1 to 1
CC(C)CCN(CCC(C)C)C(=O)c1ccc2nc(-c3cccc(=O)[nH]3)c(CCCN3CCCC3)n2c1 [Example 62] | 0 | 0.1 to 1
CC(C)CCN(CCC(C)C)C(=O)c1ccc2nc(-c3ccc(C(=O)N(C)C)cc3)c(CCCN3CCCC3)n2c1 [Example 63] | 0 | 0.1 to 1
CNC(=O)c1ccc(-c2nc3ccc(C(=O)N(CCC(C)C)CCC(C)C)cn3c2CCCN2CCCC2)cc1 [Example 64] | 0 | < 0.1
CC(C)CCN(CCC(C)C)C(=O)c1ccc2nc(-c3ccc(N)nc3)c(CCCN3CCCC3)n2c1 [Example 65] | 0 | < 0.1
CC(C)CCN(CCC(C)C)C(=O)c1ccc2nc(-c3ccc(Cl)nc3)c(CCCN(C)C)n2c1 [Example 66] | 0 | 0.1 to 1
CC(C)CCN(CCC(C)C)C(=O)c1ccc2nc(-c3ccc(Cl)nc3)c(CCCN3CCCC3)n2c1 [Example 67] | 0 | < 0.1
CC(C)CCN(CCC(C)C)C(=O)c1ccc2nc(-c3ccc(=O)[nH]c3)c(CCCN(C)C)n2c1 [Example 68] | 0 | 0.1 to 1
CC(C)CCN(CCC(C)C)C(=O)c1ccc2nc(-c3ncco3)c(CCCN3CCCC3C)n2c1 (centres unmarked) [Example 69] | 0 | < 0.1
CC(C)CCN(CCC(C)C)C(=O)c1ccc2nc(-c3ncco3)c(CCCN3CCC[C@@H]3CO)n2c1 [Example 70] | 0 | 0.1 to 1
CC(C)CCN(CCC(C)C)C(=O)c1ccc2nc(-c3ncco3)c(CCCN3CC[C@@H](O)C3)n2c1 [Example 71] | 0 | 0.1 to 1
